The source of these data is patent publication US20250236627A1, “CERTAIN OCTAHYDROFURO[3,4- B]PYRAZINES AS GLP-1 RECEPTOR MODULATORS” (ASTRAZENECA AB, priority 2021, published 2025).

Assay [1] addresses T1, endogenous human glucagon-like peptide 1 receptor (GLP-1R) (Homo sapiens, UniProt P43220).
T1 construct: endogenous human glucagon-like peptide 1 receptor (GLP-1R) in a pancreatic insulinoma cell line; host or cells: EndoC-βH1 human pancreatic β cell line
The assay is described as follows: EndoC cAMP Accumulation Assay. It is filed as cell-based. Particulars: EndoC-βH1 human pancreatic β cell line; HTRF cAMP assay. From the text: EndoC cAMP Accumulation Assay
A HTRF (Homogeneous Time-Resolved Fluorescence) cAMP assay (cAMP Gs dynamic kit; CisoBio Cat #62AM4PEJ) was used to identify agonists of the endogenous human glucagon-like peptide 1 receptor (GLP-1R) in a pancreatic insulinoma cell line (EndoC-βH1). […] EndoC-βH1 cells have detectable GLP-1R mRNA as detected by qPCR^1. […] The EndoC-βH1 cell line is a valid model of human beta cells and applicable for screenings to identify novel drug target candidates (Mol. Metab., 2018, 8, 144-157). CisBio HTRF cAMP kits are based on a competitive immunoassay using cryptate-labelled anti-cAMP antibody and d2-labeled cAMP. The detection kit is intended for the direct quantitative determination of cAMP. The specific signal (i.e. energy transfer) is inversely proportional to the concentration of cAMP in the standard or sample. Test compounds (10 mM in DMSO) were diluted into assay buffer (HBSS (Sigma #H8264) supplemented with 25 mM HEPES (Gibco #15630, pH 7.4), 0.1% BSA (Sigma #A3059) and 0.5 mM IBMX (Sigma #I7018) included fresh on the day of the assay) into 96 well U-bottom plates (Greiner #650201). Diluted compounds were transferred to ECHO source PP plates (Labcyte #P-05525) and dose response curves were dispensed acoustically using ECHO 550 into black shallow-well u-bottom 384-well HTRF Assay Plates (Corning 4514).
Cryovials of EndoC-H1 (supplied at 1×10e^7 cells/vial) were used directly for screening. The cryovials and were removed from LN2 and thawed rapidly in a 37° C. water bath. The cells were resuspended in assay buffer and centrifuged at 300 g for 5 min. Cells were resuspended in assay buffer at the appropriate concentration, typically at 12e5 cells per mL (3000 cells per well, dependent on cell batch) and 2.5 μL diluted cells were added to all wells of destination plate by Multidrop combi reagent dispenser (Thermofisher). The plates were incubated at room temperature for 30 min. The assay was stopped by adding 2.5 μL anti-cAMP cryptate solution to all wells and 2.5 μL cAMP-d2 solution (both diluted 1:20 in lysis buffer) to columns 1-22 by Combi drop. A volume of 2.5 μL cAMP-d2 solution was added to wells E23 to P24 and 2.5 μL lysis buffer added to wells A23 to D24 by multichannel pipette. The plates were incubated at room temperature for 1 hr and read on an Envision plate reader using excitation wavelength of 320 nm and emission of 590 nm and 660 nm.
Raw data from Envision is converted to % DeltaF according to the manufacturer's instructions. Dose response curves are analysed via 4-Parameter Logistical Analysis and assay plate Z′ values obtained. Samples are graphed as percentage (%) activation plots compared to GIP (1-42, Bachem H-5645) with assay window defined by negative control as basal cell cAMP levels and positive control are defined by maximum GIP (82.5 nM) signal. GLP1 (7-36 amide, Bachem H-6795) dose response curve was included on all plates.
Background: TR-FRET usually uses a lanthanide donor and a delayed reading to cut background.

A further assay concerns the target T2, human GLP-1R receptor (Homo sapiens, UniProt P43220, L260F).
T2 construct: expressed in transfected cells; host or cells: CHO-K1 (ATCC CCL-61)
Put plainly: CHOK1 GLP-1R cAMP Assay. The format is cell-based. The note with it: CHO-K1 cell line stably expressing human GLP-1R; HTRF cAMP detection. As for the experimental part:
A cell line stably expressing the human GLP-1R receptor (NM_002062.5, including the naturally-occurring variant Leu260Phe) in a CHO-K1 (ATCC® CCL-61™) was used for assay.
GLP-1 Receptor mediated agonist activity was determined in a cell based assay measuring cAMP levels in cells using Homogeneous Time-Resolved Fluorescence (HTRF) cAMP detection kit (CisBio catalog #62AM4PEC, cAMP Gs Dynamic range kit). The cAMP detection method is based on a competitive immunoassay, in which cAMP produced by the cells and cAMP labeled with the dye d2 compete for binding to a Europium-Cryptate-labeled anti-cAMP antibody. The specific HTRF signal is inversely proportional to the concentration of cAMP.
Compounds were added to individual well in 384 well-assay plates (Greiner #784076) using an Echo (LabCyte) dispenser from 10 mM stocks. Varying concentration of compounds were added to wells, and dimethyl sulfoxide was used to normalize each well to a volume of 100 nanoliter. A dose response curve of GLP1(7-36)NH2 (Bachem H-6795) was included in each run. 5 μL of cAMP concentration response standards are applied in specified wells in the assay plates.
Cryo-preserved cells are thawed and resuspended in assay buffer pre-heated to 37° C. (20 mM 2-[4-(2-hydroxyethyl)piperazin-1-yl]ethanesulfonic acid (HEPES) pH 7.4, lx Hank's Balanced Salt Solution (HBSS, Life Technologies #14065) supplemented with 0.1% (w/v) bovine serum albumin (Sigma, A-7030)). Cells were centrifuged at 250*g for 5 min at room temperature, and resuspend in room tempered assay buffer to a final density of 0.16*10^6 cell/mL, to deliver 800 cells/well. 5 μL of assay buffer with 1 mM 3-isobutyl-1-methylxanthin (IBMX; Sigma cat I-7018) was dispensed per well in assay plates using a multidrop combi (Thermo Scientific) subsequently 5 μL of cell suspension was distributed to relevant wells in the assay using a multidrop dispenser. Assay plates were incubated 20 min at room temperature.
Detection reagents, Europium-Cryptate-labeled anti-cAMP antibody and cAMP labeled with the dye d2, are diluted in lysis buffer, provided by the manufacturer. 5 μL of each detection reagent is supplemented to each assay well using a multidrop dispenser. Assay plates are incubated in the dark for at least one hour. The HTRF signal is measured using the HTRF module (excitation: 337 nm, emission A: 665 nm and emission B: 620 nm) in Pherastar FSX (BMG Labtech).
Raw data were converted to pM cAMP using the cAMP standard curve included in each run. Converted data were further analyzed in Genedata Screener (Genedata) and EC50 determinations were made from agonist dose-response curves analyzed with a curve fitting program using a 4-parameter logistic dose response equation (Equation y=A+((B−A)/1+((C/x)^D))) where A is no stimulation, B is full stimulation, C is the EC50 and D is the Hill slope). The percent effect was determined relative to a saturating concentration of a full GLP-1R agonist (GLP1(7-36)NH2 has 100% effect in this assay setup).

T1 sequence (P43220 24-463): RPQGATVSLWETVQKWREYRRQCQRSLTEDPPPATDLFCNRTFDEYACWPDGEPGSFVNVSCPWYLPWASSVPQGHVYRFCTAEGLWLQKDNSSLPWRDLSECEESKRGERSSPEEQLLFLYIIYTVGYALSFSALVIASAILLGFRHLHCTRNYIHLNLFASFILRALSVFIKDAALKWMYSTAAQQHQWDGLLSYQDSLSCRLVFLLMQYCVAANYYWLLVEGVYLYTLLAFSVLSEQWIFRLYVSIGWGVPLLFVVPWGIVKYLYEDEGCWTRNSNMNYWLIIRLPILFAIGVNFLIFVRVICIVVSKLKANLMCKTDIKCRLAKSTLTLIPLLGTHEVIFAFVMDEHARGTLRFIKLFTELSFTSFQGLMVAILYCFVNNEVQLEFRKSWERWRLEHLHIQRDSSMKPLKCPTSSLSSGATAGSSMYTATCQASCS
T2 sequence (P43220 24-463 L260F): as the sequence (P43220 24-463) above, with L237F counted along it

A word on the EC50: it is the midpoint of the concentration-response curve. Low readings indicate greater potency, high ones weaker potency. In the case of `C[C@]1(c2ccc(Cl)cn2)Oc2cccc(N3CCN(Cc4nc5c(Cl)cc(C(=O)O)cc5n4CC4(C#N)CC4)[C@H]4COC[C@H]43)c2O1` (single isomer, unassigned) [Example 23b], the EC50 amounted to 190 nM in assay [1] and 77 nM at human GLP-1R receptor.

Take `C[C@]1(c2ccc(Cl)cn2)Oc2cccc(N3CCN(Cc4nc5ccc(C(=O)O)cc5n4C[C@@H]4CCCO4)[C@H]4COC[C@H]43)c2O1` (single isomer, unassigned) [Example 8b, 2-(((4aR*,7aS*)-4-((R*)-2-(5-Chloropyridin-2-yl)-2-methylbenzo[d][1,3]dioxol-4-yl)hexahydrofuro[3,4-b]pyrazin-1(2H)-yl)methyl)-1-(((S)-tetrahydrofuran-2-yl)methyl)-1H-benzo[d]imidazole-6-carboxylic acid]: the half-maximal effective concentration (EC50) in assay [1] was found to be 1100 nM; on human GLP-1R receptor, 530 nM.

As for `C[C@]1(c2ccc(Cl)cn2)Oc2cccc(N3CCN(Cc4nc5c(F)cc(C(=O)O)cc5n4C[C@@H]4CCO4)[C@H]4COC[C@H]43)c2O1` (single isomer, unassigned) [Example 9b, 2-((4aR*,7aS*)-4-((R*)-2-(5-Chloropyridin-2-yl)-2-methylbenzo[d][1,3]dioxol-4-yl)hexahydrofuro[3,4-b]pyrazin-1(2H)-yl)methyl)-4-fluoro-1-(((S)-oxetan-2-yl)methyl)-1H-benzo[d]imidazole-6-carboxylic acid], the values for the EC50 (in assay [1]; on human GLP-1R receptor) were 660 nM and 180 nM, respectively.

Turning to `C[C@]1(c2ccc(Cl)cc2F)Oc2cccc(N3CCN(Cc4nc5c(F)cc(C(=O)O)cc5n4Cc4cocn4)[C@H]4COC[C@H]43)c2O1` (single isomer, unassigned) [Example 20b], the EC50 turned out to be 10 nM in assay [1] and 7.2 nM on human GLP-1R receptor.

For the molecule `COc1cc(C(=O)O)cc2c1nc(CN1CCN(c3cccc4c3O[C@@](C)(c3ccc(Cl)cn3)O4)[C@@H]3COC[C@@H]31)n2C[C@@H]1CCCO1` (single isomer, unassigned) [Example 2b, 2-(((4aR*,7aS*)-4-((R*)-2-(5-Chloropyridin-2-yl)-2-methylbenzo[d][1,3]dioxol-4-yl)hexahydrofuro[3,4-b]pyrazin-1(2H)-yl)methyl)-4-methoxy-1-(((S)-tetrahydrofuran-2-yl)methyl)-1H-benzo[d]imidazole-6-carboxylic acid], the values for the concentration giving a half-maximal response (EC50) (in assay [1]; on human GLP-1R receptor) were 86 nM and 110 nM, respectively.

Regarding `C[C@]1(c2ccc(Cl)cn2)Oc2cccc(N3CCN(Cc4nc5c(Cl)cc(C(=O)O)cc5n4CC4(CC#N)CC4)[C@H]4COC[C@H]43)c2O1` (single isomer, unassigned) [Example 24], the EC50 in assay [1] came to 4.3 nM; at human GLP-1R receptor, 3.1 nM.

Consider `C[C@]1(c2ccc(Cl)cc2F)Oc2cccc(N3CCN(Cc4nc5ccc(C(=O)O)cc5n4C[C@@H]4CCO4)[C@H]4COC[C@H]43)c2O1` (single isomer, unassigned) [Example 6d, 2-(((4aR*,7aS*)-4-((R*)-2-(4-Chloro-2-fluorophenyl)-2-methylbenzo[d][1,3]dioxol-4-yl)hexahydrofuro[3,4-b]pyrazin-1(2H)-yl)methyl)-1-(((S)-oxetan-2-yl)methyl)-1H-benzo[d]imidazole-6-carboxylic acid], for which the EC50 in assay [1] was determined as 1100 nM; at human GLP-1R receptor, 520 nM.

As for `C[C@]1(c2ccc(Cl)cn2)Oc2cccc(N3CCN(Cc4nc5ccc(C(=O)O)cc5n4CCn4cccn4)[C@H]4COC[C@H]43)c2O1` (single isomer, unassigned) [Example 10], the EC50 turned out to be 76 nM in assay [1] and 160 nM at human GLP-1R receptor.

As for `C[C@]1(c2ccc(Cl)cc2F)Oc2cccc(N3CCN(Cc4nc5ccc(C(=O)O)cc5n4CCn4cccn4)[C@H]4COC[C@H]43)c2O1` (single isomer, unassigned) [Example 7a], the concentration giving a half-maximal response (EC50) is 19 nM in assay [1] and 46 nM on human GLP-1R receptor.

`C[C@]1(c2ccc(Cl)cn2)Oc2cccc(N3CCN(Cc4nc5c(Cl)cc(C(=O)O)cc5n4C[C@@H]4CCCO4)[C@H]4COC[C@H]43)c2O1` (single isomer, unassigned) [Example 4a, 4-Chloro-2-(((4aR*,7aS*)-4-((R*)-2-(5-chloropyridin-2-yl)-2-methylbenzo[d][1,3]dioxol-4-yl)hexahydrofuro[3,4-b]pyrazin-1(2H)-yl)methyl)-1-(((S)-tetrahydrofuran-2-yl)methyl)-1H-benzo[d]imidazole-6-carboxylic acid]: the concentration for a half-maximal effect (EC50) worked out at 4.6 nM in assay [1] and 5.1 nM on human GLP-1R receptor.

For `C[C@]1(c2ccc(Cl)cn2)Oc2cccc(N3CCN(Cc4nc5c(F)cc(C(=O)O)cc5n4C[C@@H]4CCCO4)[C@H]4COC[C@H]43)c2O1` (single isomer, unassigned) [Example 12a, 2-(((4aR*,7aS*)-4-((R*)-2-(5-Chloropyridin-2-yl)-2-methylbenzo[d][1,3]dioxol-4-yl)hexahydrofuro[3,4-b]pyrazin-1(2H)-yl)methyl)-4-fluoro-1-(((S)-tetrahydrofuran-2-yl)methyl)-1H-benzo[d]imidazole-6-carboxylic acid], the half-maximal effective concentration (EC50) in assay [1] stood at 7.6 nM; at human GLP-1R receptor, 8 nM.

For the molecule `C[C@]1(c2ccc(Cl)cn2)Oc2cccc(N3CCN(Cc4nc5c(F)cc(C(=O)O)cc5n4C[C@@H]4CCCO4)[C@H]4COC[C@H]43)c2O1` (single isomer, unassigned) [Example 12b, 2-(((4aR*,7aS*)-4-((R*)-2-(5-Chloropyridin-2-yl)-2-methylbenzo[d][1,3]dioxol-4-yl)hexahydrofuro[3,4-b]pyrazin-1(2H)-yl)methyl)-4-fluoro-1-(((S)-tetrahydrofuran-2-yl)methyl)-1H-benzo[d]imidazole-6-carboxylic acid], the EC50 in assay [1] was 91 nM; at human GLP-1R receptor, 61 nM.
